Data on 21 compounds can be found in ChEMBL document CHEMBL3045171, “Design and synthesis of some pyrazole derivatives of expected anti-inflammatory and analgesic activities” (Med Chem Res, 2012).

SMILES strings stand for the structures.

The subject of data set [1] is Rattus norvegicus. The experiment in a line: Anti-inflammatory activity in Rattus norvegicus albino (rat) assessed as inhibition of carrageenan-induced paw edema at 25 mg/kg, ip pretreated 30 min prior to carrageenan administration measured 3 hr after carrageenan challenge (reference value: 0%). The conditions noted are these: route intraperitoneal. In kind it is functional. For orientation: The carrageenan paw model is a standard test of acute inflammation.

In data set [2] the test system is Rattus norvegicus. The experiment in a line: Anti-inflammatory activity in Rattus norvegicus albino (rat) assessed as inhibition of carrageenan-induced paw edema at 25 mg/kg, ip pretreated 30 min prior to carrageenan administration measured 2 hr after carrageenan challenge (reference value: 0%). The conditions noted are these: route intraperitoneal. The data set is classed as functional.

The nature of data set [3]: Toxicity in ip dosed Mus musculus (mouse) after 24 hr. The data set is classed as organism-based. The conditions noted are these: in vivo.
Data set [4] deals with Rattus norvegicus. The experiment in a line: Anti-inflammatory activity in Rattus norvegicus albino (rat) assessed as inhibition of carrageenan-induced paw edema at 25 mg/kg, ip pretreated 30 min prior to carrageenan administration measured 4 hr after carrageenan challenge (reference value: 0%). In kind it is functional. The conditions noted are these: route intraperitoneal.

Data set [5] relates to Mus musculus. The experiment in a line: Analgesic activity in Mus musculus (mouse) assessed as inhibition of p-benzoquinone-induced writhing at 25 mg/kg, ip pretreated 30 min prior to carrageenan administration measured 1 hr after carrageenan challenge (reference value: 0%). The conditions noted are these: route intraperitoneal. The data set is classed as functional. (An intraperitoneal irritant provokes the stretching counted in writhing tests.)

In data set [6] the test system is Mus musculus. The experiment in a line: Analgesic activity in Mus musculus (mouse) assessed as inhibition of p-benzoquinone-induced writhing at 25 mg/kg, ip pretreated 30 min prior to carrageenan administration measured 4 hr after carrageenan challenge (reference value: 0%). In kind it is functional. The note with it: route intraperitoneal.
Data set [7] concerns Mus musculus. The experiment in a line: Analgesic activity in Mus musculus (mouse) assessed as inhibition of p-benzoquinone-induced writhing at 25 mg/kg, ip pretreated 30 min prior to carrageenan administration measured 3 hr after carrageenan challenge (reference value: 0%). In kind it is functional. The conditions noted are these: route intraperitoneal.
Data set [8] has as its system Mus musculus. The experiment in a line: Analgesic activity in Mus musculus (mouse) assessed as inhibition of p-benzoquinone-induced writhing at 25 mg/kg, ip pretreated 30 min prior to carrageenan administration measured 2 hr after carrageenan challenge (reference value: 0%). In kind it is functional. The note with it: route intraperitoneal.
Data set [9] deals with Rattus norvegicus. The experiment in a line: Gastrointestinal toxicity in Rattus norvegicus albino (rat) assessed as ulcer index at 25 mg/kg, po for 3 days measured 2 hr after last dose. In kind it is organism-based. The conditions noted are these: in vivo. Also on record: dose 25 mg/kg, route oral.
The subject of data set [10] is Rattus norvegicus. The experiment in a line: Anti-inflammatory activity in Rattus norvegicus albino (rat) assessed as inhibition of carrageenan-induced paw edema at 25 mg/kg, ip pretreated 30 min prior to carrageenan administration measured 1 hr after carrageenan challenge (reference value: 0%). In kind it is functional. The note with it: route intraperitoneal.

Consider `C=C(C)C(=O)c1ccc(OC)cc1OC`, for which the inhibition in vivo (usually how much of the control response was suppressed) at 25 mg/kg in [1] stood at 31.5%; in data set [2], 29.8%; in data set [4], 32.3%; in [5] it was 20%; in data set [6], 0%; in [7], 0%. Also, the inhibition in vivo at 25 mg/kg in data set [8] came to 20%; in [10] it was 23.7%. Also, the median lethal dose (LD50) (as a rule, the dose at which mortality reaches 50%) at 24 h in data set [3] came out at 278 mg/kg. Also, the UI in data set [9] was found to be 15.24.

For the compound `C=C(C(=O)c1ccc(OC)cc1OC)c1ccccc1`, the inhibition in vivo at 25 mg/kg in data set [1] was 1.92%; in data set [2], 1.43%; in data set [4], 2.9%; in data set [10] it was 0%. The compound also came in with an LD50 at 24 h in data set [3] of 232 mg/kg.

Take `COc1ccc(C2=NNCC2C)c(OC)c1` (stereo unspecified): the inhibition in vivo at 25 mg/kg is 45.1% in data set [1]; 44.5% in data set [2]; 44.4% in data set [4]; 80% in [5]; 20% in data set [6]; 40% in data set [7]. The figures for the inhibition in vivo at 25 mg/kg in [8] and in data set [10] were 60% and 40.4%, respectively. Moreover, in data set [3], the LD50 at 24 h stood at 292 mg/kg. In addition, in [9], the UI was determined as 11.67.

Regarding `COc1ccc(C2=NNCC2c2ccccc2)c(OC)c1` (stereo unspecified), the inhibition in vivo at 25 mg/kg came to 1.8% in data set [1], 0% in data set [2], 1.92% in data set [4] and 0% in [10]. The compound also registered a median lethal dose (LD50) at 24 h in data set [3] of 278 mg/kg.

For the compound `COc1ccc(C2=NN(C(=O)NS(=O)(=O)c3ccc(C)cc3)CC2C)c(OC)c1` (stereo unspecified), the inhibition in vivo at 25 mg/kg was 25.2% in data set [1]; 27.3% in data set [2]; 25.1% in [4]; 20% in data set [5]; 0% in data set [6]; 0% in [7]. The inhibition in vivo at 25 mg/kg was 20% in data set [8] and 23.7% in data set [10]. The compound further yielded an LD50 at 24 h in [3] of 232 mg/kg.

As to `COc1ccc(C2=NN(C(=O)NS(=O)(=O)c3ccc(Cl)cc3)CC2C)c(OC)c1` (stereo unspecified), the inhibition in vivo at 25 mg/kg in data set [1] was determined as 16.4%; in data set [2], 14.6%; in data set [4] it was 18.8%; in data set [10], 12.2%. In data set [3], this compound displayed an LD50 at 24 h of 248 mg/kg.

On to `COc1ccc(C2=NN(C(=O)NS(=O)(=O)c3ccc(C)cc3)CC2c2ccccc2)c(OC)c1` (stereo unspecified), for which the inhibition in vivo at 25 mg/kg in data set [1] was determined as 4.83%; in data set [2], 6.33%; in [4], 7.21%; in [10], 4.9%. For the same compound, the median lethal dose (LD50) at 24 h in [3] is 292 mg/kg.

As to `COc1ccc(C2=NN(C(=O)NS(=O)(=O)c3ccc(Cl)cc3)CC2c2ccccc2)c(OC)c1` (stereo unspecified), the inhibition in vivo at 25 mg/kg in data set [1] is 25.7%; in data set [2] it was 27.3%; in data set [4] it was 23.6%; in [5] it was 40%; in data set [6], 0%; in data set [7], 20%. The values for the inhibition in vivo at 25 mg/kg in [8] and in data set [10] were 40% and 24.1%, respectively. The compound also had an LD50 at 24 h in data set [3] of 248 mg/kg.

As for `COc1ccc(C2=NN(C(=S)NC(=O)c3ccc(Cl)cc3)CC2C)c(OC)c1` (stereo unspecified), the inhibition in vivo at 25 mg/kg in [1] was 1.94%; in data set [2], 0%; in [4] it was 1.43%; in [10], 0%. This compound showed an LD50 at 24 h in data set [3] of 232 mg/kg.

As to `COc1ccc(C2=NN(C(=S)NC(=O)c3ccc(Cl)cc3)CC2c2ccccc2)c(OC)c1` (stereo unspecified), the inhibition in vivo at 25 mg/kg was found to be 1.43% in data set [1], 0% in data set [2], 1.92% in data set [4] and 0% in data set [10]. Besides, the LD50 at 24 h in data set [3] is 292 mg/kg.

Regarding `CCOC(=O)C(=O)C(C)C(=O)c1ccc(OC)cc1OC` (stereo unspecified), the inhibition in vivo at 25 mg/kg in data set [1] was found to be 26.1%; in [2] it was 27.2%; in data set [4] it was 24.6%; in data set [10], 23.7%. In data set [3], this compound had an LD50 at 24 h of 278 mg/kg.

`CCOC(=O)C(=O)C(C(=O)c1ccc(OC)cc1OC)c1ccccc1` (stereo unspecified): the inhibition in vivo at 25 mg/kg in [1] was determined as 20.8%; in [2] it was 20%; in data set [4] it was 21.2%; in data set [10] it was 15.1%. In data set [3], this compound registered a median lethal dose (LD50) at 24 h of 278 mg/kg.

As for `CCOC(=O)c1nn(-c2ccccc2)c(-c2ccc(OC)cc2OC)c1C`, the inhibition in vivo at 25 mg/kg in data set [1] came out at 5.81%; in [2], 4.86%; in [4] it was 5.77%; in [10], 4.9%. Further, in [3], the median lethal dose (LD50) at 24 h is 278 mg/kg.

As for `CCOC(=O)c1nn(-c2ccc(Cl)cc2)c(-c2ccc(OC)cc2OC)c1C`, the inhibition in vivo at 25 mg/kg is 2.22% in [1]; 1.43% in data set [2]; 2.38% in data set [4]; 40% in [5]; 0% in [6]; 20% in data set [7]. Moreover, the inhibition in vivo at 25 mg/kg is 40% in data set [8] and 0% in data set [10]. The same compound gave a median lethal dose (LD50) at 24 h in [3] of 248 mg/kg.

Regarding `CCOC(=O)c1nn(-c2ccccc2)c(-c2ccc(OC)cc2OC)c1-c1ccccc1`, the inhibition in vivo at 25 mg/kg was 20.8% in data set [1], 20.5% in [2], 20.2% in data set [4] and 17.7% in data set [10]. In data set [3], this compound yielded an LD50 at 24 h of 292 mg/kg.

In the case of `CCOC(=O)c1nn(-c2ccc(Cl)cc2)c(-c2ccc(OC)cc2OC)c1-c1ccccc1`, the inhibition in vivo at 25 mg/kg in data set [1] was 15%; in data set [2], 12.7%; in [4], 15.4%; in [10], 6.89%. The 50% lethal dose (LD50) at 24 h in [3] was found to be 278 mg/kg.

For the compound `COc1ccc(-c2c(C)c(C(=O)O)nn2-c2ccc(Cl)cc2)c(OC)c1`, the inhibition in vivo at 25 mg/kg in [1] was 22.8%; in [2], 28.4%; in [4] it was 22.7%; in data set [5], 40%; in data set [6], 0%; in data set [7], 20%. In addition, the inhibition in vivo at 25 mg/kg turned out to be 20% in data set [8] and 24.7% in data set [10]. The LD50 at 24 h in data set [3] is 232 mg/kg.

Regarding `COc1ccc(-c2c(-c3ccccc3)c(C(=O)O)nn2-c2ccc(Cl)cc2)c(OC)c1`, the inhibition in vivo at 25 mg/kg in [1] worked out at 45.5%; in data set [2], 42%; in data set [4], 42.5%; in [5], 80%; in [6], 20%; in [7], 40%. In addition, the values for the inhibition in vivo at 25 mg/kg in data set [8] and in data set [10] were 60% and 37%, respectively. The 50% lethal dose (LD50) at 24 h in data set [3] was 232 mg/kg. Further, the UI in data set [9] was 11.56.

On to `COc1ccc(C(=O)Cc2ccccc2)c(OC)c1`, for which the inhibition in vivo at 25 mg/kg in [1] is 15%; in data set [2] it was 11.2%; in data set [4], 15.9%; in [10] it was 5.91%. In [3], this compound came in with an LD50 at 24 h of 278 mg/kg.

In the case of `Cc1ccc(-c2cc(C(F)(F)F)nn2-c2ccc(S(N)(=O)=O)cc2)cc1` [CELECOXIB], the inhibition in vivo at 25 mg/kg in data set [1] turned out to be 64%; in data set [2] it was 61.1%; in data set [4] it was 62.8%; in [5] it was 100%; in [6] it was 80%; in [7], 80%. Besides, the figures for the inhibition in vivo at 25 mg/kg in [8] and in data set [10] were 100% and 54.2%, respectively. The compound further returned an LD50 at 24 h in data set [3] of 250 mg/kg. Also, the UI in data set [9] amounted to 8.4.

With `CC(C)Cc1ccc(C(C)C(=O)O)cc1` (stereo unspecified) [IBUPROFEN], the inhibition in vivo at 25 mg/kg in [1] was 66.7%; in data set [2] it was 63.5%; in data set [4] it was 76.1%; in [10], 55.4%. Moreover, the UI in data set [9] was 22.92.
